Values of other authors, collected in patent US20060078955A1, “Method for retrieving delta9-THC from oral fluid” (Lin-Zhi International, priority 2004, published 2006).

## sulfobutyl-ether-β-cyclodextrin [Captisol]
hepta-substituted preparation
  intrinsic aqueous solubility: > 50 % w/v

## CCCCCc1cc(O)c2c(c1)OC(C)(C)[C@@H]1CCC(C)=C[C@@H]21 [Δ^9-THC, Δ^9-tetrahydrocannabinol]
Jarho et al.
  aqueous solubility: 1 to 2 µg/mL
